Laboratory results as given in the NIST ThermoML archive (doi:10.1021/je201289w).
Numbers after ± are expanded uncertainties.

Conditions: 283.15 K; 101.33 kPa; Liquid; Vibrating tube method

Compared with `CCCCn1cc[n+](C)c1.O=S(=O)([N-]S(=O)(=O)C(F)(F)C(F)(F)C(F)(F)C(F)(F)F)C(F)(F)C(F)(F)C(F)(F)C(F)(F)F`, `CCn1cc[n+](C)c1.O=S(=O)([N-]S(=O)(=O)C(F)(F)F)C(F)(F)F` is lower in mass density: 1629.5 ± 3.1 kg/m3 for the first, 1533.8 ± 2.8 kg/m3 for the second.

Compared with `CCC[N+]1(C)CCCC1.O=S(=O)([N-]S(=O)(=O)C(F)(F)F)C(F)(F)F`, `CCn1cc[n+](C)c1.O=S(=O)([O-])O` [1-ethyl-3-methylimidazolium hydrogen sulfate] is lower in mass density: 1441 ± 2.4 kg/m3 for the first, 1376.7 ± 2.2 kg/m3 for the second.

First: CCn1cc[n+](C)c1.N#CN=C=[N-] [1-ethyl-3-methylimidazolium dicyanamide]
Second: CCn1cc[n+](C)c1.N#C[S-] [1-ethyl-3-methylimidazolium thiocyanate]
The mass density of the first is lower: 1111.4 ± 1.4 kg/m3 for the first, 1124.7 ± 1.4 kg/m3 for the second.

Going from `CCOS(=O)(=O)[O-].CCn1cc[n+](C)c1` [1-ethyl-3-methylimidazolium ethyl sulfate] to `CCn1cc[n+](C)c1.CS(=O)(=O)[O-]` [1-ethyl-3-methylimidazolium methanesulfonate], the mass density rises from 1247.7 ± 1.8 kg/m3 to 1252 ± 1.8 kg/m3.

First: CCn1cc[n+](C)c1.N#C[B-](C#N)(C#N)C#N [1-ethyl-3-methylimidazolium tetracyanoborate]
Second: CCn1cc[n+](C)c1.F[B-](F)(F)F [1-ethyl-3-methylimidazolium tetrafluoroborate]
The mass density of the first is lower: 1041 ± 1.2 kg/m3 for the first, 1292 ± 1.9 kg/m3 for the second.

Same assay, conditions: 288.15 K; 101.33 kPa; Liquid; Vibrating tube method

Going from `CCCCn1cc[n+](C)c1.O=S(=O)([N-]S(=O)(=O)C(F)(F)C(F)(F)C(F)(F)C(F)(F)F)C(F)(F)C(F)(F)C(F)(F)C(F)(F)F` to `CCn1cc[n+](C)c1.O=S(=O)([N-]S(=O)(=O)C(F)(F)F)C(F)(F)F`, the mass density falls from 1623.4 ± 3.1 kg/m3 to 1528.7 ± 2.7 kg/m3.

Going from `CCC[N+]1(C)CCCC1.O=S(=O)([N-]S(=O)(=O)C(F)(F)F)C(F)(F)F` to `CCn1cc[n+](C)c1.O=S(=O)([O-])O` [1-ethyl-3-methylimidazolium hydrogen sulfate], the mass density falls from 1436.4 ± 2.4 kg/m3 to 1373.6 ± 2.2 kg/m3.

Going from `CCn1cc[n+](C)c1.N#CN=C=[N-]` [1-ethyl-3-methylimidazolium dicyanamide] to `CCn1cc[n+](C)c1.N#C[S-]` [1-ethyl-3-methylimidazolium thiocyanate], the mass density rises from 1107.9 ± 1.4 kg/m3 to 1121.7 ± 1.4 kg/m3.

Going from `CCOS(=O)(=O)[O-].CCn1cc[n+](C)c1` [1-ethyl-3-methylimidazolium ethyl sulfate] to `CCn1cc[n+](C)c1.CS(=O)(=O)[O-]` [1-ethyl-3-methylimidazolium methanesulfonate], the mass density rises from 1244.3 ± 1.8 kg/m3 to 1248.4 ± 1.8 kg/m3.

Going from `CCn1cc[n+](C)c1.N#C[B-](C#N)(C#N)C#N` [1-ethyl-3-methylimidazolium tetracyanoborate] to `CCn1cc[n+](C)c1.F[B-](F)(F)F` [1-ethyl-3-methylimidazolium tetrafluoroborate], the mass density rises from 1037 ± 1.2 kg/m3 to 1288.2 ± 1.9 kg/m3.

Same assay, conditions: 293.15 K; 101.33 kPa; Liquid; Vibrating tube method

Going from `CCCCn1cc[n+](C)c1.O=S(=O)([N-]S(=O)(=O)C(F)(F)C(F)(F)C(F)(F)C(F)(F)F)C(F)(F)C(F)(F)C(F)(F)C(F)(F)F` to `CCn1cc[n+](C)c1.O=S(=O)([N-]S(=O)(=O)C(F)(F)F)C(F)(F)F`, the mass density falls from 1617.3 ± 3.1 kg/m3 to 1523.6 ± 2.7 kg/m3.

First: CCC[N+]1(C)CCCC1.O=S(=O)([N-]S(=O)(=O)C(F)(F)F)C(F)(F)F
Second: CCn1cc[n+](C)c1.O=S(=O)([O-])O [1-ethyl-3-methylimidazolium hydrogen sulfate]
The mass density of the first is higher: 1431.9 ± 2.4 kg/m3 for the first, 1370.5 ± 2.2 kg/m3 for the second.

First: CCn1cc[n+](C)c1.N#CN=C=[N-] [1-ethyl-3-methylimidazolium dicyanamide]
Second: CCn1cc[n+](C)c1.N#C[S-] [1-ethyl-3-methylimidazolium thiocyanate]
The mass density of the first is lower: 1104.6 ± 1.4 kg/m3 for the first, 1118.6 ± 1.4 kg/m3 for the second.

Compared with `CCOS(=O)(=O)[O-].CCn1cc[n+](C)c1` [1-ethyl-3-methylimidazolium ethyl sulfate], `CCn1cc[n+](C)c1.CS(=O)(=O)[O-]` [1-ethyl-3-methylimidazolium methanesulfonate] is higher in mass density: 1241 ± 1.8 kg/m3 for the first, 1245 ± 1.8 kg/m3 for the second.

Going from `CCn1cc[n+](C)c1.N#C[B-](C#N)(C#N)C#N` [1-ethyl-3-methylimidazolium tetracyanoborate] to `CCn1cc[n+](C)c1.F[B-](F)(F)F` [1-ethyl-3-methylimidazolium tetrafluoroborate], the mass density rises from 1032.9 ± 1.2 kg/m3 to 1284.3 ± 1.9 kg/m3.

Same assay, conditions: 298.15 K; 101.33 kPa; Liquid; Vibrating tube method

Compared with `CCCCn1cc[n+](C)c1.O=S(=O)([N-]S(=O)(=O)C(F)(F)C(F)(F)C(F)(F)C(F)(F)F)C(F)(F)C(F)(F)C(F)(F)C(F)(F)F`, `CCn1cc[n+](C)c1.O=S(=O)([N-]S(=O)(=O)C(F)(F)F)C(F)(F)F` is lower in mass density: 1611.1 ± 3.1 kg/m3 for the first, 1518.5 ± 2.7 kg/m3 for the second.

First: CCC[N+]1(C)CCCC1.O=S(=O)([N-]S(=O)(=O)C(F)(F)F)C(F)(F)F
Second: CCn1cc[n+](C)c1.O=S(=O)([O-])O [1-ethyl-3-methylimidazolium hydrogen sulfate]
The mass density of the first is higher: 1427.4 ± 2.4 kg/m3 for the first, 1367.4 ± 2.2 kg/m3 for the second.

Compared with `CCn1cc[n+](C)c1.N#CN=C=[N-]` [1-ethyl-3-methylimidazolium dicyanamide], `CCn1cc[n+](C)c1.N#C[S-]` [1-ethyl-3-methylimidazolium thiocyanate] is higher in mass density: 1101.2 ± 1.4 kg/m3 for the first, 1115.5 ± 1.4 kg/m3 for the second.

Going from `CCOS(=O)(=O)[O-].CCn1cc[n+](C)c1` [1-ethyl-3-methylimidazolium ethyl sulfate] to `CCn1cc[n+](C)c1.CS(=O)(=O)[O-]` [1-ethyl-3-methylimidazolium methanesulfonate], the mass density rises from 1237.6 ± 1.8 kg/m3 to 1241.6 ± 1.8 kg/m3.

Compared with `CCn1cc[n+](C)c1.N#C[B-](C#N)(C#N)C#N` [1-ethyl-3-methylimidazolium tetracyanoborate], `CCn1cc[n+](C)c1.F[B-](F)(F)F` [1-ethyl-3-methylimidazolium tetrafluoroborate] is higher in mass density: 1028.9 ± 1.2 kg/m3 for the first, 1280.5 ± 1.9 kg/m3 for the second.

Same assay, conditions: 303.15 K; 101.33 kPa; Liquid; Vibrating tube method

First: CCCCn1cc[n+](C)c1.O=S(=O)([N-]S(=O)(=O)C(F)(F)C(F)(F)C(F)(F)C(F)(F)F)C(F)(F)C(F)(F)C(F)(F)C(F)(F)F
Second: CCn1cc[n+](C)c1.O=S(=O)([N-]S(=O)(=O)C(F)(F)F)C(F)(F)F
The mass density of the first is higher: 1605 ± 3 kg/m3 for the first, 1513.4 ± 2.7 kg/m3 for the second.

Compared with `CCC[N+]1(C)CCCC1.O=S(=O)([N-]S(=O)(=O)C(F)(F)F)C(F)(F)F`, `CCn1cc[n+](C)c1.O=S(=O)([O-])O` [1-ethyl-3-methylimidazolium hydrogen sulfate] is lower in mass density: 1422.8 ± 2.4 kg/m3 for the first, 1364.3 ± 2.2 kg/m3 for the second.

Compared with `CCn1cc[n+](C)c1.N#CN=C=[N-]` [1-ethyl-3-methylimidazolium dicyanamide], `CCn1cc[n+](C)c1.N#C[S-]` [1-ethyl-3-methylimidazolium thiocyanate] is higher in mass density: 1097.9 ± 1.3 kg/m3 for the first, 1112.4 ± 1.4 kg/m3 for the second.

Compared with `CCOS(=O)(=O)[O-].CCn1cc[n+](C)c1` [1-ethyl-3-methylimidazolium ethyl sulfate], `CCn1cc[n+](C)c1.CS(=O)(=O)[O-]` [1-ethyl-3-methylimidazolium methanesulfonate] is higher in mass density: 1234.3 ± 1.7 kg/m3 for the first, 1238.2 ± 1.8 kg/m3 for the second.

Going from `CCn1cc[n+](C)c1.N#C[B-](C#N)(C#N)C#N` [1-ethyl-3-methylimidazolium tetracyanoborate] to `CCn1cc[n+](C)c1.F[B-](F)(F)F` [1-ethyl-3-methylimidazolium tetrafluoroborate], the mass density rises from 1024.9 ± 1.1 kg/m3 to 1276.7 ± 1.9 kg/m3.

Same assay, conditions: 308.15 K; 101.33 kPa; Liquid; Vibrating tube method

Compared with `CCCCn1cc[n+](C)c1.O=S(=O)([N-]S(=O)(=O)C(F)(F)C(F)(F)C(F)(F)C(F)(F)F)C(F)(F)C(F)(F)C(F)(F)C(F)(F)F`, `CCn1cc[n+](C)c1.O=S(=O)([N-]S(=O)(=O)C(F)(F)F)C(F)(F)F` is lower in mass density: 1599.1 ± 3 kg/m3 for the first, 1508.4 ± 2.7 kg/m3 for the second.

First: CCC[N+]1(C)CCCC1.O=S(=O)([N-]S(=O)(=O)C(F)(F)F)C(F)(F)F
Second: CCn1cc[n+](C)c1.O=S(=O)([O-])O [1-ethyl-3-methylimidazolium hydrogen sulfate]
The mass density of the first is higher: 1418.3 ± 2.4 kg/m3 for the first, 1361.1 ± 2.2 kg/m3 for the second.

Going from `CCn1cc[n+](C)c1.N#CN=C=[N-]` [1-ethyl-3-methylimidazolium dicyanamide] to `CCn1cc[n+](C)c1.N#C[S-]` [1-ethyl-3-methylimidazolium thiocyanate], the mass density rises from 1094.6 ± 1.3 kg/m3 to 1109.4 ± 1.4 kg/m3.

First: CCOS(=O)(=O)[O-].CCn1cc[n+](C)c1 [1-ethyl-3-methylimidazolium ethyl sulfate]
Second: CCn1cc[n+](C)c1.CS(=O)(=O)[O-] [1-ethyl-3-methylimidazolium methanesulfonate]
The mass density of the first is lower: 1231 ± 1.7 kg/m3 for the first, 1234.9 ± 1.8 kg/m3 for the second.

First: CCn1cc[n+](C)c1.N#C[B-](C#N)(C#N)C#N [1-ethyl-3-methylimidazolium tetracyanoborate]
Second: CCn1cc[n+](C)c1.F[B-](F)(F)F [1-ethyl-3-methylimidazolium tetrafluoroborate]
The mass density of the first is lower: 1020.9 ± 1.1 kg/m3 for the first, 1272.9 ± 1.9 kg/m3 for the second.

Same assay, conditions: 313.15 K; 101.33 kPa; Liquid; Vibrating tube method

Compared with `CCCCn1cc[n+](C)c1.O=S(=O)([N-]S(=O)(=O)C(F)(F)C(F)(F)C(F)(F)C(F)(F)F)C(F)(F)C(F)(F)C(F)(F)C(F)(F)F`, `CCn1cc[n+](C)c1.O=S(=O)([N-]S(=O)(=O)C(F)(F)F)C(F)(F)F` is lower in mass density: 1593.2 ± 3 kg/m3 for the first, 1503.3 ± 2.7 kg/m3 for the second.

Going from `CCC[N+]1(C)CCCC1.O=S(=O)([N-]S(=O)(=O)C(F)(F)F)C(F)(F)F` to `CCn1cc[n+](C)c1.O=S(=O)([O-])O` [1-ethyl-3-methylimidazolium hydrogen sulfate], the mass density falls from 1413.8 ± 2.3 kg/m3 to 1357.8 ± 2.1 kg/m3.

Compared with `CCn1cc[n+](C)c1.N#CN=C=[N-]` [1-ethyl-3-methylimidazolium dicyanamide], `CCn1cc[n+](C)c1.N#C[S-]` [1-ethyl-3-methylimidazolium thiocyanate] is higher in mass density: 1091.3 ± 1.3 kg/m3 for the first, 1106.3 ± 1.4 kg/m3 for the second.

First: CCOS(=O)(=O)[O-].CCn1cc[n+](C)c1 [1-ethyl-3-methylimidazolium ethyl sulfate]
Second: CCn1cc[n+](C)c1.CS(=O)(=O)[O-] [1-ethyl-3-methylimidazolium methanesulfonate]
The mass density of the first is lower: 1227.6 ± 1.7 kg/m3 for the first, 1231.5 ± 1.7 kg/m3 for the second.

Compared with `CCn1cc[n+](C)c1.N#C[B-](C#N)(C#N)C#N` [1-ethyl-3-methylimidazolium tetracyanoborate], `CCn1cc[n+](C)c1.F[B-](F)(F)F` [1-ethyl-3-methylimidazolium tetrafluoroborate] is higher in mass density: 1016.9 ± 1.1 kg/m3 for the first, 1269.1 ± 1.9 kg/m3 for the second.

Same assay, conditions: 318.15 K; 101.33 kPa; Liquid; Vibrating tube method

First: CCCCn1cc[n+](C)c1.O=S(=O)([N-]S(=O)(=O)C(F)(F)C(F)(F)C(F)(F)C(F)(F)F)C(F)(F)C(F)(F)C(F)(F)C(F)(F)F
Second: CCn1cc[n+](C)c1.O=S(=O)([N-]S(=O)(=O)C(F)(F)F)C(F)(F)F
The mass density of the first is higher: 1587.4 ± 3 kg/m3 for the first, 1498.3 ± 2.6 kg/m3 for the second.

First: CCC[N+]1(C)CCCC1.O=S(=O)([N-]S(=O)(=O)C(F)(F)F)C(F)(F)F
Second: CCOS(=O)(=O)[O-].CCn1cc[n+](C)c1 [1-ethyl-3-methylimidazolium ethyl sulfate]
The mass density of the first is higher: 1409.3 ± 2.3 kg/m3 for the first, 1224.3 ± 1.7 kg/m3 for the second.

`CCn1cc[n+](C)c1.N#CN=C=[N-]` [1-ethyl-3-methylimidazolium dicyanamide] showed a mass density of 1088 ± 1.3 kg/m3.
